For 2 compounds, KM results are on record in PMC11750938, “Self-sufficient biocatalytic cascade for the continuous synthesis of danshensu in flow” (Applied Microbiology and Biotechnology, 2025).

In this assay the target is T1, MpHPPR (hydroxyphenylpyruvate reductase from Mentha x piperita) (Mentha x piperita, UniProt A0A2R4SEK0).
T1 construct: codon-optimised synthetic gene in pET15b, N-terminal His-tag, expressed in E. coli BL21(DE3) Star, Ni-NTA purified, dimer
T1 sequence (A0A2R4SEK0 1-313): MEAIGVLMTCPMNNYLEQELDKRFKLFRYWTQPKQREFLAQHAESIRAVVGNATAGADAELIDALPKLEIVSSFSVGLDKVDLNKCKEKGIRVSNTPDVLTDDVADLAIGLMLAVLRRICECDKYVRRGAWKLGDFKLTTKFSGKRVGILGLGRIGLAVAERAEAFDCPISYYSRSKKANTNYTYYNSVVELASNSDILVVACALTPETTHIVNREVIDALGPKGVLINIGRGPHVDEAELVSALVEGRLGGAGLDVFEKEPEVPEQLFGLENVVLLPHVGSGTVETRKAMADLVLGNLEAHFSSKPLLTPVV
The experiment in a line: HPLC product quantification. It counts as biochemical. The conditions noted are these: pH 7.0, 100 mM potassium phosphate, 37 °C, 10 mM NAD(P)H, 5 mM ß-mercaptoethanol.

Structures are written as SMILES.

For `O=C(O)C(=O)Cc1ccc(O)cc1` [HPPA, 3-(4-Hydroxyphenyl)−2-oxopropanoic acid], the KM result was “Specific activity and KM for phenylpyruvic acid (PPA), 4-hydroxyphenylpyruvic acid (HPPA)”.
Regarding `O=C(O)C(=O)Cc1ccccc1` [PPA, phenylpyruvic acid], the KM result was “Specific activity and KM for phenylpyruvic acid (PPA)”.
